For assay [1], the target named is T1, human RHBDL4 (hRHBDL4) (Homo sapiens, UniProt Q8TEB9).
T1 sequence (Q8TEB9 1-315): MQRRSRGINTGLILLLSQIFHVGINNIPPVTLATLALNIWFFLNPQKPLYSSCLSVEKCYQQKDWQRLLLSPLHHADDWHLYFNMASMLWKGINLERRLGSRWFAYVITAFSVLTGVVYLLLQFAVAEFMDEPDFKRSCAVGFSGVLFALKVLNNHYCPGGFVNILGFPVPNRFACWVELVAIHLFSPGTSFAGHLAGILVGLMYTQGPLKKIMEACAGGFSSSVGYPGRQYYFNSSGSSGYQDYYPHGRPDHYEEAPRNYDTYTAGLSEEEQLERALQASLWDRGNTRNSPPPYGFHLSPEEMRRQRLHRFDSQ
In words: competitive ABPP with FP-Rh at […]. The assay is classed as biochemical. The arrangement: gene RHBDD1; hRHBDL4 in HEK293T membrane proteome.

Assay [2] concerns the target T1, human RHBDL4 (hRHBDL4). The experiment in a line: competitive ABPP with FP-Rh, dose-response. The assay is classed as biochemical. Also on record: gene RHBDD1.
Assay [3] deals with T2, hPARL (presenilin-associated rhomboid-like protein, mitochondrial) (Homo sapiens, UniProt Q9H300).
T2 construct: gene PARL; hPARL in HEK293T membrane proteome
In words: competitive ABPP, dose-response. It counts as biochemical.

Assay [4] concerns the target T2, hPARL (presenilin-associated rhomboid-like protein, mitochondrial). In words: competitive ABPP, dose-response. The assay is classed as cell-based.

Like-named read-outs stand apart in the source and are kept apart here.

T2 sequence (Q9H300 53-379): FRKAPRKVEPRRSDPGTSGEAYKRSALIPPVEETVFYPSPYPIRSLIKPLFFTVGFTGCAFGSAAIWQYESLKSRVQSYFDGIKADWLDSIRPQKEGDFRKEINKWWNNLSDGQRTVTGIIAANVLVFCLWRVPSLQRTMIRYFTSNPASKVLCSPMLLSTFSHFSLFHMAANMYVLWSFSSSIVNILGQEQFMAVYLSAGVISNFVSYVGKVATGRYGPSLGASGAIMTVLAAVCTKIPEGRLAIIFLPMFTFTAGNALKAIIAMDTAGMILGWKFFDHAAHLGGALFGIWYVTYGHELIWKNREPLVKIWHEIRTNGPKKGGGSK

As to `O=C(OCN1C(=O)c2ccccc2S1(=O)=O)c1ccccc1Cl` [BSc5195], the “competitive ABPP with FP-Rh at 100 μM” value in assay [1] is on record as “nearly complete competition at 100”. As to `O=c1oc(Cl)c(Cl)c2ccccc12` [3,4-DCI], the IC50 in assay [2] was 1.1 µM; in assay [3], 25 µM.

In the case of `O=C1CCC(=O)N1S(=O)(=O)c1ccccc1` [WHP3A], the IC50 result in assay [4] is “low micromolar”.

The record behind these values is article PMC11334910, “Activity-Based Protein Profiling of RHBDL4 Reveals Proteolysis of the Enzyme and a Distinct Inhibitor Profile” (ACS Chemical Biology, 2024).
